Measurements published in BigSolDB 2.1.

NC(N)=C([N+](=O)[O-])[N+](=O)[O-]
Details	solubility (mole fraction)
in 1,4-dioxane, 298.15 K	7.2e-05
in 1,4-dioxane, 314.15 K	0.000102
in 1,4-dioxane, 326.85 K	0.000143
in 1,4-dioxane, 339.65 K	0.000215
in 1,4-dioxane, 341.45 K	0.000257
in 1,4-dioxane, 347.55 K	0.000315
in 1,4-dioxane, 358.35 K	0.000357
in DEF, 298.35 K	0.0702
in DEF, 314.15 K	0.0824
in DEF, 324.95 K	0.0914
in DEF, 340.15 K	0.102
in DEF, 349.85 K	0.112
in DEF, 367.45 K	0.15
in DMF, 297.15 K	0.0946
in DMF, 310.75 K	0.109
in DMF, 327.85 K	0.122
in DMF, 340.15 K	0.136
in DMF, 352.75 K	0.148
in DMF, 361.05 K	0.161
in DMF, 365.15 K	0.173
in DMSO, 293.75 K	0.183
in DMSO, 303.85 K	0.188
in DMSO, 312.15 K	0.193
in DMSO, 319.15 K	0.204
in DMSO, 328.65 K	0.214
in DMSO, 339.85 K	0.224
in DMSO, 350.15 K	0.233
in DMSO, 354.15 K	0.238
in DMSO, 358.15 K	0.242
in DMSO, 367.15 K	0.261
in NMP, 295.05 K	0.163
in NMP, 318.15 K	0.186
in NMP, 344.45 K	0.207
in NMP, 363.85 K	0.227
in NMP, 371.75 K	0.246
in cyclohexanone, 291.95 K	0.00244
in cyclohexanone, 320.85 K	0.00434
in cyclohexanone, 330.95 K	0.00521
in cyclohexanone, 335.65 K	0.0061
in cyclohexanone, 343.15 K	0.00693
in cyclohexanone, 360.85 K	0.0104
in cyclohexanone, 370.35 K	0.0138
in ethyl acetate, 296.15 K	0.000116
in ethyl acetate, 304.95 K	0.000187
in ethyl acetate, 314.75 K	0.00027
in ethyl acetate, 318.15 K	0.000282
in ethyl acetate, 324.35 K	0.000332
in ethyl acetate, 326.55 K	0.000368
in ethyl acetate, 334.15 K	0.000444
in ethyl acetate, 344.65 K	0.000544
in gamma-butyrolactone, 300.15 K	0.0064
in gamma-butyrolactone, 304.15 K	0.0077
in gamma-butyrolactone, 324.55 K	0.0128
in gamma-butyrolactone, 332.55 K	0.0153
in gamma-butyrolactone, 336.45 K	0.0178
in gamma-butyrolactone, 343.45 K	0.0202
in gamma-butyrolactone, 346.25 K	0.0227
in gamma-butyrolactone, 350.85 K	0.0252
in gamma-butyrolactone, 357.85 K	0.0313
in gamma-butyrolactone, 368.55 K	0.0373
in water, 296.15 K	2e-05
in water, 303.45 K	3.5e-05
in water, 310.75 K	6e-05
in water, 318.65 K	0.000122
in water, 326.15 K	0.000154
in water, 328.55 K	0.000198
in water, 337.95 K	0.000277
in water, 343.15 K	0.000365
in water, 348.75 K	0.000504
